Experimental data from patent US20260209152A1, “Substituted Hydroxystilbene Compounds and Derivatives, Synthesis and Uses Thereof” (Kynan Duke IP, LLC, priority 2019, published 2026).
Like-named read-outs stand apart in the source and are kept apart here.

How the values were obtained:
Colon SW_480 = experiment: CellTiter Glo cell viability assay; type: cell-based, human; settings: for IC50: Homo sapiens
[1] = test system: Neuroblastoma CHP-212/CRL-2273; experiment: CellTiter Glo cell viability assay; type: cell-based; settings: Homo sapiens, 11 dilutions 3-0.00001 μM
Experimental: (§1) 1.7*10^3 cells/well were seeded in quadruplicates in 96-well plate after plating. Drugs were added at 5 μM and 2-fold dilutions over 18 concentrations (0.000038146-5 […] range) to generate a dose-response curve. Cell growth was assessed on day 1, 3 and 5 after drug treatments using the CellTiter Glo Luminescence Cell Viability Assay (Promega) according to manufacturer's protocol. Thermo Scientific Varioskan LUX Multimode Microplate instrument was used for plate reading. Data are expressed as mean luminescence (arbitrary units) ±S.D.
(§2) Cell Viability Assays were employed to determine the concentration of Compound 1 (KYN-001) and analogues where the response is reduced by half. For each treatment of cancer cells, 1, 2, 5, 10 and 20 μM solutions of compounds were applied. GraphPad Prism 7 software was used to fit dose response curves. Relative Luminescence Units were plotted against the log values of the doses used and the nonlinear regression model was used for data analysis.
(§3) IC50 (μM) values correspond to log(inhibitor) vs. response (four parameters) and dose-response graphs were generated using GraphPad Prism8.

[2] = test system: Colon cancer SW620/CCL-227; experiment: CellTiter Glo cell viability assay; type: cell-based; settings: Homo sapiens, SW-620, 11 dilutions 3-0.00001 μM
Experimental: as §1, §2, §3

[3] = test system: Liver cancer SNU-449/CRL-2234; experiment: CellTiter Glo cell viability assay; type: cell-based; settings: Homo sapiens, 11 dilutions 3-0.00001 μM
Experimental: as §1, §2, §3

[4] = test system: Neuroblastoma BE(2)-C/CRL-2268; experiment: CellTiter Glo cell viability assay; type: cell-based; settings: Homo sapiens, 11 dilutions 3-0.00001 μM
Experimental: as §1, §2, §3

[5] = test system: Osteosarcoma MG-63/CRL-1427; experiment: CellTiter Glo cell viability assay; type: cell-based; settings: Homo sapiens, 11 dilutions 3-0.00001 μM
Experimental: as §1, §2, §3

[6] = test system: Neuroblastoma SK-N-DZ/CRL-2149; experiment: CellTiter Glo cell viability assay; type: cell-based; settings: Homo sapiens, 11 dilutions 3-0.00001 μM
Experimental: as §1, §2, §3

[7] = test system: Muscle Ewing's Sarcoma A-673/CRL-1598; experiment: CellTiter Glo cell viability assay; type: cell-based; settings: Homo sapiens, A673, 11 dilutions 3-0.00001 μM
Experimental: as §1, §2, §3

[8] = test system: Neuroblastoma SK-N-FI/CRL-2142; experiment: CellTiter Glo cell viability assay; type: cell-based; settings: Homo sapiens, 11 dilutions 3-0.00001 μM
Experimental: as §1, §2, §3

[9] = test system: Colon cancer HT-29/HTB-38; experiment: CellTiter Glo cell viability assay; type: cell-based; settings: Homo sapiens, 11 dilutions 3-0.00001 μM
Experimental: as §1, §2, §3

Ewing's Sarcoma HTB-166 = experiment: CellTiter Glo cell viability assay; type: cell-based, human; settings: for IC50: Homo sapiens
Summary of the method: (§4)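 Cells seeded at 1.7*10^3/well in quadruplicate; compounds at 18 two-fold dilutions from 5 μM (0.000038146-5 μM), or at 1, 2, 5, 10 and 20 μM. CellTiter Glo luminescence read on days 1, 3 and 5 after treatment. IC50 by nonlinear regression of luminescence versus log dose.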

Tongue CAL 27 = experiment: CellTiter Glo cell viability assay; type: cell-based, human; settings: for IC50: Homo sapiens
Summary of the method: as §4

Liver HepG2 = experiment: CellTiter Glo cell viability assay; type: cell-based, human; settings: for IC50: Homo sapiens
Summary of the method: as §4

[10] = test system: Hypo-pharynx UPCI: SCC152; experiment: CellTiter Glo cell viability assay; type: cell-based, human; settings: for IC50: Homo sapiens
Summary of the method: as §4

Lung NCI-H1437 = experiment: CellTiter Glo cell viability assay; type: cell-based, human; settings: for IC50: Homo sapiens
Summary of the method: as §4

Bladder T24 = experiment: CellTiter Glo cell viability assay; type: cell-based, human; settings: for IC50: Homo sapiens
Summary of the method: as §4

Pharynx FADU = experiment: CellTiter Glo cell viability assay; type: cell-based, human; settings: for IC50: Homo sapiens
Summary of the method: as §4

[11] = test system: Cancer cells including pancreatic, bladder, kidney, colon, breast, lung, liver and osteosarcomas; experiment: CellTiter Glo cell viability assay, panel of cancer cell lines; type: cell-based, human
Summary of the method: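 Cells (1.7*10^3/well) were seeded in quadruplicate and treated with 2-fold dilutions over 18 concentrations up to 5 μM, or with 1, 2, 5, 10 and 20 μM. Viability was read by CellTiter Glo luminescence on days 1, 3 and 5; half-maximal concentrations came from nonlinear regression of RLU versus log dose.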

Liposarcoma 94T778 = experiment: CellTiter Glo cell viability assay; type: cell-based, human; settings: for IC50: Homo sapiens, 72 h, 3 Days of treatment, 18 2-fold dilutions 5-0.00003 μM
Summary of the method: as §4

Liver Huh7 = experiment: CellTiter Glo cell viability assay; type: cell-based, human; settings: for IC50: Homo sapiens, Huh-7, 72 h, 3 Days of treatment, 18 2-fold dilutions 5-0.00003 μM
Summary of the method: as §4

Liver JHH-6 = experiment: CellTiter Glo cell viability assay; type: cell-based, human; settings: for IC50: Homo sapiens, 72 h, 3 Days of treatment, 18 2-fold dilutions 5-0.00003 μM
Summary of the method: as §4

Osteosarcomas KHOS_312H = experiment: CellTiter Glo cell viability assay; type: cell-based, human; settings: for IC50: Homo sapiens, 72 h, 3 Days of treatment, 18 2-fold dilutions 5-0.00003 μM
Summary of the method: as §4

Breast 4T1 = experiment: CellTiter Glo cell viability assay; type: cell-based; settings: Table 5B: 11 dilutions 3-0.00001 μM; Exp N
Experimental: as §1, §2

[12] = SW480/CCL-228, 11 dilutions 3-0.00001 μM, read-out: IC50
[13] = RD-ES/HTB-166, 11 dilutions 3-0.00001 μM, read-out: IC50
[14] = CAL 27/CRL-2095, 11 dilutions 3-0.00001 μM, read-out: IC50
[15] = HepG2, Hep G2/HB-8065, 11 dilutions 3-0.00001 μM, read-out: IC50
[16] = UPCI: SCC152/CRL-3240, 11 dilutions 3-0.00001 μM, read-out: IC50
[17] = NCI-H1437/CRL-5872, 11 dilutions 3-0.00001 μM, read-out: IC50
[18] = T24/HTB-4, 11 dilutions 3-0.00001 μM, read-out: IC50
[19] = Fadu/HTB-43, 11 dilutions 3-0.00001 μM, read-out: IC50
[20] = SW480, 72 h, 3 Days of treatment, 18 2-fold dilutions 5-0.00003 μM, read-out: Average IC50
[21] = 72 h, 3 Days of treatment, 18 2-fold dilutions 5-0.00003 μM, read-out: Average IC50
[22] = CAL-27, 72 h, 3 Days of treatment, 18 2-fold dilutions 5-0.00003 μM, read-out: Average IC50
[23] = HepG2, 72 h, 3 Days of treatment, 18 2-fold dilutions 5-0.00003 μM, read-out: Average IC50
[24] = NCI-H1437, 72 h, 3 Days of treatment, 18 2-fold dilutions 5-0.00003 μM, read-out: Average IC50
[25] = FaDu, 72 h, 3 Days of treatment, 18 2-fold dilutions 5-0.00003 μM, read-out: Average IC50
[26] = IC50 of 1 [KYN-001] vs 8 [KYN-119], 3 Days

## CCOc1cc(O)cc(/C=C/c2ccc(O)c(O)c2)c1CC=C(C)C [Compound 20, (E)-4-(3-Ethoxy-5-hydroxy-2-(3-methylbut-2-en-1-yl)styryl)benzene-1,2-diol]
Colon SW_480; [12]
  IC50: 158 nM
[1]
  IC50: 26.1 nM
[2]
  IC50: 103 nM
[3]
  IC50: 64 nM
[4]
  IC50: 54.8 nM
[5]
  IC50: 31.3 nM
[6]
  IC50: 140 nM
[7]
  IC50: 312 nM
[8]
  IC50: 48.5 nM
[9]
  IC50: 1990 nM
Ewing's Sarcoma HTB-166; [13]
  IC50: 338 nM
Tongue CAL 27; [14]
  IC50: 40.9 nM
Liver HepG2; [15]
  IC50: 234 nM
[10]; [16]
  IC50: 149 nM
Lung NCI-H1437; [17]
  IC50: 73.2 nM
Bladder T24; [18]
  IC50: 111 nM
Pharynx FADU; [19]
  IC50: 80.1 nM

## COc1cc(/C=C/c2cc(O)cc(OC)c2CC=C(C)C)ccc1O [Compound 1, (E)-3-(4-hydroxy-3-methoxystyryl)-5-methoxy-4-(3-methylbut-2-en-1-yl)phenol]
Colon SW_480; [20]
  IC50: 179 nM
Colon SW_480; SW480, 72 h, Day 3 upon drug treatment, 10 dosages 0.0001-20 μM, read-out: IC50
  IC50: 298 nM
Colon SW_480; [12]
  IC50: 225 nM
[1]
  IC50: 28.1 nM
[2]
  IC50: 121 nM
[3]
  IC50: 81.8 nM
[4]
  IC50: 67.1 nM
[5]
  IC50: 44.1 nM
[6]
  IC50: 132 nM
[7]
  IC50: 471 nM
[8]
  IC50: 116 nM
[9]
  IC50: 1560 nM
[11]; Day 1 upon treatment at dosages <1 μM
  Effect on cell viability on Day 1: neither 1 nor 8 affect cell viability
[11]; Homo sapiens, comparative study on 83 cancer cell lines (Table 3), read-out: IC50 values in the range, towards the cell lines listed in the text
  IC50: 10 to 100 nM
Ewing's Sarcoma HTB-166; [21]
  IC50: 257 nM
Ewing's Sarcoma HTB-166; [13]
  IC50: 310 nM
Tongue CAL 27; [22]
  IC50: 56.8 nM
Tongue CAL 27; [14]
  IC50: 89.4 nM
Liver HepG2; [23]
  IC50: 212 nM
Liver HepG2; [15]
  IC50: 577 nM
[10]; [21]
  IC50: 46.3 nM
[10]; [16]
  IC50: 140 nM
Lung NCI-H1437; [24]
  IC50: 347 nM
Lung NCI-H1437; [17]
  IC50: 143 nM
Liposarcoma 94T778
  IC50: 84.5 nM
Bladder T24; [21]
  IC50: 129 nM
Bladder T24; [18]
  IC50: 182 nM
Liver Huh7
  IC50: 78.9 nM
Pharynx FADU; [25]
  IC50: 74.4 nM
Pharynx FADU; [19]
  IC50: 139 nM
Liver JHH-6
  IC50: 172 nM
Osteosarcomas KHOS_312H
  IC50: 356 nM
Breast 4T1
  IC50: 117 nM

## CCOc1cc(O)cc(/C=C/c2ccc(O)c(OC)c2)c1CC=C(C)C [Compound 8, (E)-3-Ethoxy-5-(4-hydroxy-3-methoxystyryl)-4-(3-methylbut-2-en-1-yl)phenol]
Colon SW_480; [20]
  IC50: 17.9 nM
Colon SW_480; [12]
  IC50: 109 nM
Colon SW_480; [26]
  Fold IC50: 10
[1]
  IC50: 9.8 nM
[2]
  IC50: 35.5 nM
[3]
  IC50: 32.5 nM
[4]
  IC50: 25.9 nM
[5]
  IC50: 18.2 nM
[6]
  IC50: 50.1 nM
[7]
  IC50: 157 nM
[8]
  IC50: 26.6 nM
[9]
  IC50: 939 nM
[11]; 83 cancer cell lines, Table 3
  Average fold (8 [KYN-119] more potent than 1 [KYN-001]): 10
Ewing's Sarcoma HTB-166; [21]
  IC50: 49.2 nM
Ewing's Sarcoma HTB-166; [13]
  IC50: 163 nM
Ewing's Sarcoma HTB-166; [26]
  Fold IC50: 5.2
Tongue CAL 27; [22]
  IC50: 38.3 nM
Tongue CAL 27; [14]
  IC50: 30.9 nM
Tongue CAL 27; [26]
  Fold IC50: 1.5
Liver HepG2; [23]
  IC50: 20.2 nM
Liver HepG2; [15]
  IC50: 296 nM
Liver HepG2; [26]
  Fold IC50: 11
[10]; [21]
  IC50: 23 nM
[10]; [16]
  IC50: 54.9 nM
[10]; [26]
  Fold IC50: 2.0
Lung NCI-H1437; [24]
  IC50: 16.6 nM
Lung NCI-H1437; [17]
  IC50: 32.7 nM
Lung NCI-H1437; [26]
  Fold IC50: 21
Liposarcoma 94T778
  IC50: 25.7 nM
Liposarcoma 94T778; [26]
  Fold IC50: 3.3
Bladder T24; [21]
  IC50: 22.5 nM
Bladder T24; [18]
  IC50: 61.1 nM
Bladder T24; [26]
  Fold IC50: 5.8
Liver Huh7
  IC50: 20.6 nM
Liver Huh7; [26]
  Fold IC50: 3.8
Pharynx FADU; [25]
  IC50: 37.1 nM
Pharynx FADU; [19]
  IC50: 54.1 nM
Pharynx FADU; [26]
  Fold IC50: 2.0
Liver JHH-6
  IC50: 36.4 nM
Liver JHH-6; [26]
  Fold IC50: 4.7
Osteosarcomas KHOS_312H
  IC50: 36.7 nM
Osteosarcomas KHOS_312H; [26]
  Fold IC50: 9.7
